From patent US20230212123A1, “Pyridine Inhibitors of Glucosylceramide Synthase and Therapeutic Methods Using the Same” (THE REGENTS OF THE UNIVERSITY OF MICHIGAN, priority 2020, published 2023) come the findings set out here.

Data set [1] concerns the target T1, glucosylceramide synthase (GCS) (Canis lupus familiaris, UniProt A0A8I3MXG6).
T1 construct: endogenous in cells; host or cells: MDCK cell homogenate
T1 sequence (A0A8I3MXG6 1-394): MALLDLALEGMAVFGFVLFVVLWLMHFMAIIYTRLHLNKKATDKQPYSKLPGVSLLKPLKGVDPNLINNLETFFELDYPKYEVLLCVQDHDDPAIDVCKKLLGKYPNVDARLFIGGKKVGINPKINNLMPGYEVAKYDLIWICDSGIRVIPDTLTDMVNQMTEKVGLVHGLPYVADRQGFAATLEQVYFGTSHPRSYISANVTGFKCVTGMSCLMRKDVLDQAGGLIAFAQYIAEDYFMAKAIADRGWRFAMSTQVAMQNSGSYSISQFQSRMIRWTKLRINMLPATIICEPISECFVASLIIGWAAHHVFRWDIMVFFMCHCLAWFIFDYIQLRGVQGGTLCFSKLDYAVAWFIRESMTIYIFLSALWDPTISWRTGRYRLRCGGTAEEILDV
In words: GCS inhibition in MDCK cell homogenates (Lysate IC50). In kind it is biochemical, canine. The settings on record: MDCK cell homogenate. Here is the method: GCS Inhibition in MDCK Cell Homogenates (Lysate IC50, Table 1)
IC50 values for new compounds of the invention were determined as reported in Shayman J. A., Abe A. 2000. Glucosylceramide synthase: assay and properties. Methods Enzymol.311: 42-49.

For the next data set, the target named is T2, GCS in MDCKII cells (Canis lupus familiaris, UniProt A0A8I3MXG6).
T2 construct: whole cellular lipids of wild type MDCKII cells were extracted; endogenous in cells; host or cells: wild type MDCKII cells
T2 sequence (A0A8I3MXG6 1-394): T1 sequence (A0A8I3MXG6 1-394)
In words: GCS inhibition in MDCKII cells (glucosylceramide content after 24 h). The format is cell-based, canine. Here is the method:
GCS Inhibition in MDCKII Cells (MDCKII IC50, Table 1)
MDCKII cells were routinely maintained in medium consisting of Opti-MEM/F12 (1:1), 5% FBS, 100 U/mL of penicillin, 100 µg/mL streptomycin and 200 mM L-glutamine. MDCKII cells were newly thawed from frozen ampules every two months.
Stock solutions of water-insoluble glycosphingolipid inhibitors (100 mM) were prepared by dissolving each inhibitor into 100% ethanol as previously described (3). The inhibitor-ethanol solutions then were diluted 50X into 2 mM delipidated bovine serum albumin-phosphate buffered saline solution to make water-soluble glycosphingolipid inhibitor-bovine serum albumin complexes. The inhibitor-bovine serum album complexes were sterile-filtered and stored at -20° C. Prior to use, portions of the inhibitor-bovine serum albumin complexes were further diluted with Opti-F12 to make treatment solutions. Equal amounts of bovine serum albumin and ethanol were added into the control cultures. Cells (5 x 10^5) were seeded into 10-cm culture dishes containing 10 ml of Opti-F12 with 5% FBS. After 24 hours, the medium was replaced with fresh serum-free Opti-F12 medium, and cells were exposed to candidate GCS inhibitors at concentrations of 0, 1, 3, 10, 30, 100 and 300 nM for 24 hours.
Following inhibitor treatment, whole cellular lipids of wild type MDCKII cells were extracted as previously described in detail (10). Briefly, cells were washed with ice-cold phosphate buffered saline, fixed by methanol, and collected with rubber scraper. Chloroform was then added to yield a theoretical ratio of chloroform:methanol:water at 1:2:0.8 (v/v/v) to form a mono-phase. Cell debris and proteins were removed by centrifugation at 2200 x g for 30 min. The supernatants were portioned by adding chloroform and 0.9% NaCl. The lower organic phases containing neutral glycosphingolipids lipids were washed with methanol and 0.9% NaCl, and subjected to base- and acid-hydrolysis (10). A portion of purified glycosphingolipids normalized to 100 nmol of total phospholipids was analyzed by high performance thin layer chromatography. The thin layer chromatography separations were processed twice. The plate pretreated with 1% sodium borate was first developed in a solvent system consisting of chloroform/methanol (98/2, v/v). After air drying, the plate was then developed in a solvent system containing chloroform/methanol/water (70/30/4, v/v/v). The levels of glucosylceramide were detected by charring with 8% cupric sulfate in 8% phosphoric acid, and quantified by densitometric scanning using ImageJ, NIH Image. Image data was analyzed, and the IC50 of each inhibitor was calculated using GraphPad Prism (version 5.03).

The nature of data set [2]: Pharmacokinetics in mice: plasma and brain drug AUC. The settings on record: over 7 hrs following single IP injection at 10 mg/kg; for Kp / AUC: mouse; for Kp: brain/plasma; for AUC: plasma. In kind it is in vivo.
Data set [3] concerns glucosylceramide (GlcCer) in brain and liver. In words: Reduction of brain and liver glucosylceramide in CBE mice. In kind it is in vivo. The settings on record: 14 days, D409V/null mice with CBE 25 mg/kg/day ip.
Method: The in vivo assay measured the reduction in brain and liver glucosylceramide and glucosylsphingosine levels in mice on a D409V background concurrently treated with conduritol B epoxide (CBE), an irreversible inhibitor of GBA (beta-glucocerebrosidase).
Reduction of Brain and Liver Glucosylceramide and Glucosylsphingosine in CBE Mice
The reduction by inhibitors of GCS in brain glucosylceramide and glucosylsphingosine content was determined by the use of mice with Gba 1 mutant alleles, termed D409V/null. These are knock-in mice with a Gba 1 point mutation encoding Valine (V) 409 for the wild type (WT) Aspartate (D) on one missense allele and a null heteroallele [D409V/null (9V/null)]. The D409V/null and WT littermates were of mixed gender and mixed, but matched, genetic backgrounds of C57BL/129Sv/FVB. […] Mice were concurrently treated with GCS inhibitor or vehicle control for 14 days. The mice were sacrificed 2 hours following the last injection and tissues including brain, liver, spleen, kidney and lung were analyzed for glucosylceramide and glucosylsphingosine by mass spectrometry.
Mouse Tissue Lipid Analysis
Lipid extractions of liver, kidney, and brain were performed as previously described (7). Briefly, frozen liver (about 0.5 g), two kidneys (about 0.3 g) and whole brain (about 0.4 g) were individually homogenized in sucrose buffer (250 mM sucrose, pH 7.4, 10 mM HEPES and 1 mM EDTA), at 0.2 g tissue/1 mL of sucrose buffer, with a Tri-R homogenizer. Each 0.8 mL of homogenate was mixed with 2 mL of methanol and 1 mL of chloroform, bath sonicated for 1 min and incubated at room temperature for 1 h. Tissue debris were removed by centrifugation at 2.400 x gravity for 30 min. The pellets were reextracted by mixing with 1 mL of methanol, 0.5 mL of chloroform and 0.4 mL of 0.9% NaCl (chloroform/methanol/0.9% NaCl, 1:2:0.8), incubated at room temperature for 1 h and centrifuged at 2.400 x gravity for another 30 min. Two extracts were combined and mixed with 4.5 mL of chloroform and 1.2 mL of 0.9% NaCl (chloroform/methanol/0.9% NaCl, 2:1:0.8). After centrifugation at 800 x gravity for 5 min, lower layer was washed with 3 mL of methanol and 2.4 mL of 0.9% NaCl. Second washing was carried with 3 mL of methanol, 2 mL of water and 0.4 mL of 0.9% NaCl followed by a 5 min centrifugation at 800 x gravity. The resultant lower phase was collected and dried under a stream of N2 gas.
The analysis of neutral glycosphingolipids from mouse liver, kidney, and brain was processed after alkaline methanolysis. Kidney lipids were incubated with 2 mL of chloroform and 1 ml of 0.21 N NaOH in methanol for 2 h (kidney) or 7.5 h (liver and brain) at RT. […] GlcCer levels were quantified by comparison to known standards.
Setting [4] is: 24 hours exposure, glucosylceramide level.

`O=C(CC1Cc2ccccc2C1)N[C@H](CN1CCCC1)[C@H](O)c1ccc(OC(F)(F)F)cn1` [Example 21, 2-(2,3-dihydro-1H-inden-2-yl)-N-((1S,2R)-1-hydroxy-3-(pyrrolidin-1-yl)-1-(5-(trifluoromethoxy)pyridin-2-yl)propan-2-yl)acetamide]: the IC50 (in general, the concentration at which inhibition is half-maximal) in data set [1] was determined as 0.077 µM. Also, the IC50 at GCS in MDCKII cells (cell marked 'rac': value of the racemate, 24 hours) is 0.0065 µM. In addition, in data set [2], the Kp (usually the ratio of the level in a tissue or fluid to that in plasma or blood) worked out at 0.35; the AUC – broadly, the area under the concentration-time curve, a measure of exposure – is 1120 ng·h/mL; the “Brain drug AUC” value is 398 ng·h/g.

For `CC(C)(C)Oc1ccc([C@@H](O)[C@@H](CN2CCCC2)NC(=O)CC2Cc3ccccc3C2)nc1` [Example 17, N-((1S,2R)-1-(5-(tert-butoxy)pyridin-2-yl)-1-hydroxy-3-(pyrrolidin-1-yl)propan-2-yl)-2-(2,3-dihydro-1H-inden-2-yl)acetamide], the IC50 in data set [1] is 0.0113 µM. Besides, on GCS in MDCKII cells (setting [4]), half-maximal inhibition (IC50) was put at 0.0046 µM. For the same compound, in data set [3] (dose 100 µmol/kg), the “CBE mouse GlcCer reduction in brain” value was 23% and the “CBE mouse GlcCer reduction in liver” value stood at 34%. Moreover, in data set [2], the concentration ratio (Kp) was determined as 0.34, the AUC came to 902 ng·h/mL and the “Brain drug AUC” value was found to be 308 ng·h/g.

For the compound `O=C(CC1Cc2ccccc2C1)N[C@H](CN1CCCC1)[C@H](O)c1ccc(OC(F)(F)F)cc1` [reference compound], in data set [2], the Kp is 0.8, the “Brain drug AUC” value is 1046 ng·h/g and the “Plasma drug AUC” value was 1308 ng·h/mL.

As to `CC(C)(C)Oc1ccc([C@@H](O)[C@@H](CN2CCCC2)NC(=O)CC2Cc3ccccc3C2)cc1` [reference compound], in data set [2], the Kp is 0.58, the area under the curve (AUC) is 1070 ng·h/mL and the “Brain drug AUC” value is 619 ng·h/g.

As for `O=C(CC1Cc2ccccc2C1)N[C@H](CN1CCCC1)[C@H](O)c1cccc(Cl)c1` [reference compound], in data set [2], the Kp was found to be 0.72 and the “Brain drug AUC” value stood at 1109 ng·h/g.

Take `COc1cccc([C@@H](O)[C@@H](CN2CCCC2)NC(=O)CC2Cc3ccccc3C2)n1` [Example 3, 2-(2,3-dihydro-1H-inden-2-yl)-N-((1S,2R)-1-hydroxy-1-(6-methoxypyridin-2-yl)-3-(pyrrolidin-1-yl)propan-2-yl)acetamide]: the IC50 in data set [1] came to 0.198 µM; against GCS in MDCKII cells (setting [4]), 0.0305 µM.

In the case of `COc1ccc([C@@H](O)[C@@H](CN2CCC(C)(C)C2)NC(=O)CC2Cc3ccccc3C2)nc1` [Example 16, 2-(2,3-dihydro-1H-inden-2-yl)-N-((1S,2R)-3-(3,3-dimethylpyrrolidin-1-yl)-1-hydroxy-1-(5-methoxypyridin-2-yl)propan-2-yl)acetamide], the IC50 was over 2 µM in data set [1] and over 1 µM against GCS in MDCKII cells (setting [4]).

For `O=C(CC1Cc2ccccc2C1)N[C@H](CN1CCCC1)[C@H](O)c1cc(Cl)ccn1` [Example 25, N-((1S,2R)-1-(4-chloropyridin-2-yl)-1-hydroxy-3-(pyrrolidin-1-yl)propan-2-yl)-2-(2,3-dihydro-1H-inden-2-yl)acetamide], it took 0.0364 µM to reach half-maximal inhibition in data set [1] (IC50). In data set [3] (dose 72 µmol/kg), the “CBE mouse GlcCer reduction in brain” value turned out to be 30% and the “CBE mouse GlcCer reduction in liver” value worked out at 36%. In data set [2], the Kp turned out to be 0.17, the AUC amounted to 1040 ng·h/mL and the “Brain drug AUC” value was found to be 173 ng·h/g.
